Measured values from patent US20110201665A1, “Compositions, Methods, and Kits for Treating Influenza Viral Infections” (priority 2009, published 2011).

Assays:
[1] = tested on: Influenza A/NWS/33 (H1N1); design: species or system C57/BL6 mice; settings: mouse, in vivo; for survival on day 8: po
[2] = design: dose or concentration left out as unconfirmed; settings: Phase I, single or multiple oral doses; cited from earlier work
[3] = tested on: influenza A or B viruses; settings: human, in vivo, po; cited from earlier work
[4] = in vivo, po; cited from earlier work

## CC(C)C(=O)c1c(C(C)C)nn2ccccc12 [ibudilast, 1-(2-isopropyl-pyrazolo[1,5-a]pyridine-3-yl)-2-methylpropan-1-one]
[1]
  survival on day 8: 0%

## O=C(Nc1c(Cl)cncc1Cl)c1ccc(OC(F)F)c(OCC2CC2)c1 [roflumilast, 3-(cyclopropylmethoxy)-N-(3,5-dichloropyridin-4-yl)-4-(difluoromethoxy)benzamide]
[1]
  survival on day 8: 0%

## COc1ccc(C2CNC(=O)C2)cc1OC1CCCC1 (stereo not shown) [rolipram, 4-[3-(cyclopentyloxy)-4-methoxyphenyl]-2-pyrrolidone]
[1]
  survival on day 8: 0%

## CCC(CC)[C@H](NC(C)=O)[C@@H]1[C@H](O)[C@@H](C(=O)O)C[C@H]1NC(=N)N [peramivir, (1S,2S,3S,4R)-3-[(1S)-1-Acetamido-2-ethyl-butyl]-4-(diaminomethylideneamino)-2-hydroxy-cyclopentane-1-carboxylic acid]
[2]
  tolerability: well-tolerated
[3]
  adverse effects: no adverse effects

## CCOC(=O)C1=C[C@@H](OC(CC)CC)[C@H](NC(C)=O)[C@@H](N)C1 [oseltamivir, (3R,4R,5S)-4-acetylamino-5-amino-3(1-ethylpropoxy)-1-cyclohexene-1-carboxylic acid, ethyl ester]
[1]
  survival rate: 40%
[4]
  half-life: 6 to 10 h
